Literature values, collected in US20140023701A1, “Method and Composition for Ameliorating the Effects tor a Subject Exposed to Radiation or Other Sources of Oxidative Stress” (priority 2011, published 2014).
Like-named read-outs stand apart in the source and are kept apart here.

Legend:
Human [1] = tested on: Human
Human [2] = tested on: Human; remark: listed apart in the source
[3] = no observed adverse event level, most sensitive subgroup
[4] = tolerable upper intake level, daily intake

Compound: O=C(O)CCCC[C@@H]1SC[C@@H]2NC(=O)N[C@@H]21 [Biotin]
- Human NOAEL (Human [1]; [3]): 2.5 mg

Compound: [Ca] [Calcium]
- Human NOAEL (Human [1]; [3]): 1500 mg
- Human UL (19-70 yo group) (Human [2]): 2500 mg

Compound: Nc1nc2ncc(CNc3ccc(C(=O)N[C@@H](CCC(=O)O)C(=O)O)cc3)nc2c(=O)[nH]1 [Folate, folic acid]
- Human NOAEL (Human [1]; [3]): 1 mg

Compound: [Mg] [Magnesium]
- Human NOAEL (Human [1]; [3]): 700 mg
- Human UL (19-70 yo group) (Human [2]; [4]): 350 mg

Compound: [Mn+2] [Manganese]
- Human NOAEL (Human [1]; [3]): 10 mg
- Human UL (19-70 yo group) (Human [2]): 11 mg

Compound: [Mo] [Molybdenum]
- Human NOAEL (Human [1]; [3]): 0.35 mg
- Human UL (19-70 yo group) (Human [2]; [4]): 2 mg

Compound: O=C(O)c1cccnc1 [Niacin, inositol hexanicotinate]
- Human UL (19-70 yo group) (Human [2]; [4]): 35 mg

Compound: CC(C)(CO)[C@@H](O)C(=O)NCCC(=O)O [Pantothenic acid, d-calcium pantothenate]
- Human NOAEL (Human [1]; [3]): 1000 mg

Compound: Cc1ncc(CO)c(CO)c1O.Cl [Vitamin B6, pyridoxine hydrochloride]
- Human NOAEL (Human [1]; human): 200 mg
- Human UL (19-70 yo group) (Human [2]): 100 mg

Compound: O=C1O[C@H]([C@@H](O)CO)C(O)=C1O [Vitamin C, ascorbic acid]
- Human NOAEL (Human [1]; [3]): >1000 mg

Compound: C=C1CC[C@H](O)C/C1=C/C=C1\CCC[C@]2(C)[C@@H]([C@H](C)CCCC(C)C)CC[C@@H]12 [Vitamin D, cholecalciferol]
- Human NOAEL (Human [1]; [3]): 800 IU

Compound: CC1=C(C/C=C(\C)CCC[C@H](C)CCC[C@H](C)CCCC(C)C)C(=O)c2ccccc2C1=O [Vitamin K, phytonadione]
- Human NOAEL (Human [1]; human): 0.03 mg

Compound: Copper
- Human NOAEL (Human [1]; [3]): 9 mg
- Human UL (19-70 yo group) (Human [2]): 10 mg

Compound: Vitamin A
- Human NOAEL (Human [1]; human): 10,000 IU
- Human UL (19-70 yo group) (Human [2]): 10,000 U

Compound: Vitamin E
- Human NOAEL (Human [1]; human): 1200 IU
- Human UL (19-70 yo group) (Human [2]; [4]): 1490 IU

Compound: Zinc
- Human NOAEL (Human [1]; [3]): 30 mg
- Human UL (19-70 yo group) (Human [2]): 40 mg

Compound: chromium polynicotinate
- Human NOAEL (Human [1]; [3]): 1 mg

Compound: cyanocobalamin [Vitamin B12]
- Human NOAEL (Human [1]; [3]): 3 mg
